Each structure is given as a SMILES string.

The test system of one series is MCF-7 cells. The experiment in a line: alamarBlue cell viability assay, MCF-7. Type of series: cell-based. To be noted: Homo sapiens, MCF7, 72 h, read-out: MCF-7 IC50 ± SEM. The source says: (§1) Cell viability and proliferation assays were used to evaluate the in vitro cytotoxicity of all synthesised compounds in a variety of different cancer cell lines using the alamarBlue® viability assay and the results are presented in Table 1 and Table 2. The sensitivity of cancer cells to drugs can often be compromised by PIK3CA, Ras and BRAF mutations. To determine whether such mutations are critical to the efficacy of our new compounds we tested them in a range of cancerous cell lines expressing different mutations. Firstly, we used the HL-60 (human promyelocytic leukaemia, NRas mutated) cell line for general cytotoxicity screening of all compounds. […] Lastly, toxicity against MCF-10A, which is a non-tumorigenic epithelial cell line, was also assessed for one of the most promising compounds (4). The graphs representing the viability results with the HL-60, MCF-7, HeLa, HCT-116, and HKH-2 cancer cell lines for compound 1 and derivatives 2, 3, and 4 are shown in Figures S7–S10 (ESI).
(§2) Cells were counted and seeded in 96-well plates at a density of 2 × 10^5 cells/mL for HL-60, 2.5 × 10^4 cells/mL for MCF-7, MCF10A and HeLa, 1 × 10^5 cells/mL for HCT116 and HKH-2, all of them in their respective media. The 96-well plates were then treated with a 1:100 dilution of stock concentrations of drugs or EtOH (1% v/v)/DMSO (0.1% v/v) as vehicle control in triplicate. Three blank wells containing 200 µL RPMI with no cells were also set-up as blanks. After a 72 h incubation, 20 µL of alamarBlue was added to each well. The plates were incubated in darkness at 37 °C for 4–5 h using a Molecular Devices microplate reader, the fluorescence (F) was then read at an excitation wavelength of 544 nm and an emission wavelength of 590 nm. Cell viability was then determined by subtracting the mean blank fluorescence (Fb) from the treated sample fluorescence (Fs) and expressing this as a percentage of the fluorescence of the blanked vehicle control (Fc). […] The results were then plotted as a nonlinear regression, sigmoidal dose-response curves on Prism, from which the IC50 value for each drug was determined.
(§3) The MCF-7 (human breast tumour) cell line was obtained from Prof. Mary Meegan, School of Pharmacy, TCD. It was maintained in Roswell Park Memorial Institute (RPMI) 1640 medium with stable glutamate (GlutaMax I) supplemented with 10% (v/v) fetal bovine serum (FBS), 1% (v/v) penicillin/ streptomycin (pen-strep) and 2 mM L-glutamine.
(§4) The HeLa (human epitheloid cervix carcinoma) cell line was obtained from Prof. Thorfinnur Gunnlaugsson, School of Chemistry TCD. It was maintainedin Dulbecco's Modified Eagle's Medium (DMEM) supplemented with 10% (v/v) fetal bovine serum (FBS) and 1%(v/v) penicillin/ streptomycin (pen-strep).
(§5) The HCT116and HKH-2 (human colon cancer cells) cell lines were obtained from Prof. James Murray, School of Biochemistry and Immunology TCD. They were maintainedin Dulbecco's Modified Eagle's Medium (DMEM) supplemented with 10% (v/v) fetal bovine serum (FBS), 1% (v/v) penicillin/ streptomycin (pen-strep), 1% (v/v) sodium pyruvate (NaPyr), 1% (v/v) L-glutamine (L-Glu) and, only for HKH-2, 0.6 mg/mL geneticine (G418).
MCF-10A (human breast epithelial) cell line was obtained from Prof. Mary Meegan, School of Pharmacy, TCD. It was cultured in Dulbecco’s Modified Eagle Medium/Nutrient Mixture F-12 (DMEM/F12; Gibco) supplemented with 5% horse serum (Invitrogen), 20 ng/mL epidermal growth factor (Merck Millipore), 0.5 μg/mL hydrocortisone (Sigma), 100 ng/mL cholera toxin (Sigma), 10 μg/mL insulin (Sigma), and penicillin/streptomycin (1% v/v) (Gibco).
4.4. AlamarBlue ® Cell Viability Assay
Cells were counted and seeded in 96 well plates at a density of 2 × 10^5 cells/mL for HL-60, 2.5× 10^4 cells/mL for MCF-7, MCF10A and HeLa, 1 × 10^5 cells/mL for HCT116 and HKH-2, all of them in their respective media. The 96 well plates were then treated with a 1:100 dilution of stock concentrations of drugs or EtOH (1% v/v)/DMSO (0.1% v/v) as vehicle control in triplicate. […]
On the technique in general: Resazurin is reduced to fluorescent resorufin, in cell work by metabolically active cells.

Another series concerns HCT116 cells. The experiment in a line: alamarBlue cell viability assay, HCT116. Type of series: cell-based. As to conditions: Homo sapiens, HCT-116, 72 h, KRas mutant, read-out: HCT116 IC50 ± SEM.
Description: as §1, §2, §3, §4, §5
MCF-10A (human breast epithelial) cell line was obtained from Prof. Mary Meegan, School of Pharmacy, TCD. […]
Cells were counted and seeded in 96 well plates at a density of 2 × 10^5 cells/mL for HL-60, 2.5× 10^4 cells/mL for MCF-7, MCF10A and HeLa, 1 × 10^5 cells/mL for HCT116 and HKH-2, all of them in their respective media. […]

A word on the IC50: it is the concentration that inhibits the measured activity by half. As a reminder, the melting point is the temperature, or range, at which the solid turns liquid. The compound `Cl.Cl.N=C(N)Nc1ccc(Oc2cccc(NC(=N)Nc3ccc(Cl)c(C(F)(F)F)c3)c2)cn1` [Compound 2, 1-(4-Chloro-3-(trifluoromethyl)phenyl)-3-(3-((6-guanidinopyridin-3-yl)oxy)phenyl) guanidine dihydrochloride] came in with a melting point of 169 to 171 °C. In the series on MCF-7 cells, the IC50 was 4.91 ± 1.04 µM. In addition, the 50% inhibitory concentration (IC50) in the series with HCT116 cells was 7.29 ± 0.53 µM.
On the same counts, the results for `Cl.N=C(N)Nc1ccc(Oc2cccc(Nc3ccc(Cl)c(C(F)(F)F)c3)c2)cc1` [Compound 3, 1-(4-(3-((4-Chloro-3-(trifluoromethyl)phenyl)amino)phenoxy)phenyl)guanidine hydrochloride] are 58 to 60 °C, 2.02 ± 0.27 µM and 15.9 ± 2.73 µM.
Take `Cl.N=C(N)Nc1ccc(Oc2cccc(Nc3ccc(Cl)c(C(F)(F)F)c3)c2)cn1` [Compound 4, 1-(5-(3-((4-Chloro-3-(trifluoromethyl)phenyl)amino)phenoxy)pyridin-2-yl)guanidine hydrochloride]: the melting point was 89 to 91 °C. The IC50 in the series on MCF-7 cells is 3.73 ± 0.35 µM. Moreover, the IC50 in the series with HCT116 cells was determined as 4.59 ± 0.4 µM.

The values are drawn from article PMC7767381, “Exploring the Anti-Cancer Mechanism of Novel 3,4′-Substituted Diaryl Guanidinium Derivatives” (Pharmaceuticals, 2020).
